Where a name gives a salt, the structure may show the parent alone. Read-outs that look alike come from different tables or passages of the source.
Columns and labels:
[1] = system: MRC-5 cells; experiment: MRC-5 cell viability, dose-response treatment, MTT assay; format: cell-based, human; conditions: MRC-5 cells, MTT, 72 h, pH 7.4, n = 6, this work
[2] = system: S. aureus MRSA (ATCC 43300); experiment: CO-ADD antibacterial assay, growth inhibition (OD600); format: cell-based, Staphylococcus aureus; conditions: for MIC / Dmax: Staphylococcus aureus; for MIC / MIC S. aureus (MRSA): predicted or measured MIC, lowest concentration with ≥75% growth inhibition, 0.25-32 μg/mL, 18 h; for Dmax / Dmax S. aureus (MRSA), maximum % inhibition: up to 32 μg/mL; for Dmax: read-out: Dmax S. aureus (MRSA), maximum % inhibition
[3] = system: HEK293 ATCC CRL-1573 human embryonic kidney cells; experiment: CO-ADD cytotoxicity assay (resazurin); format: cell-based; conditions: for antiproliferative effect against HEK293 (in words): all concentrations examined (0.25-32 μg/mL), 20 h, CC50 could not be measured
[4] = Homo sapiens, MRC5, read-out: IC50 ± SD
[5] = Homo sapiens, MRC5, read-out: IC50 ± SD (µg/mL)

| Compound | IC50 [1, 4] | IC50 [1, 5] | MIC [2] | Dmax [2] | antiproliferative effect against HEK293 (in words) [3] | IC50 ± SD (µg/mL) [1] | IC50 ([1]; read-out: IC50 ± SD) | MIC S. aureus (MRSA) [2] | Dmax S. aureus (MRSA), maximum % inhibition [2] | MIC against MRSA in units of molarity ([2]; converted from 16 μg/mL) | Dmax S. aureus (MRSA), maximum % inhibition ([2]; listed as Ti(Deferasirox)2) | inhibition of HEK293 cell proliferation ([3]; at the maximum concentration tested) | IC50 ± SD [1] |
| --- | --- | --- | --- | --- | --- | --- | --- | --- | --- | --- | --- | --- | --- |
| O=C(O)CC(O)(CC(=O)O)C(=O)O [Compound 1, Trisodium citrate, reference compound] | > 100 µM | > 29.4 µg/mL | > 32 µg/mL | 10.6% | – | – | – | – | – | – | – | – | – |
| Oc1cc2ccccc2cc1O [Compound 2, 2,3-dihydroxynaphthalene, reference compound] | > 100 µM | > 16 µg/mL | > 32 µg/mL | 12.6% | – | – | – | – | – | – | – | – | – |
| O=C(O)c1ccccc1O [Compound 6, salicylic acid, reference compound] | > 100 µM | > 13.8 µg/mL | > 32 µg/mL | 13.9% | – | – | – | – | – | – | – | – | – |
| [K+].[K+].c1ccc2cc3c(cc2c1)[O][Ti-2]12([O]3)([O]c3cc4ccccc4cc3[O]1)[O]c1cc3ccccc3cc1[O]2 [Compound 8, K2[Ti(Naphthalene-2,3-diolate)3]] | – | – | – | – | inactive | >>65.5 µg/mL | > 100 µM | >32 µg/mL | 52.5% | – | – | – | – |
| O=C(O)c1ccc(-n2nc3nc2-c2ccccc2[O][Ti]2([O]c4ccccc4-3)[O]c3ccccc3-c3nc(n(-c4ccc(C(=O)O)cc4)n3)-c3ccccc3[O]2)cc1 [Compound 10, titanium(IV) bis(deferasirox)] | – | – | – | – | insignificant antiproliferative effect | – | – | 16 µg/mL | 98.2% | 20.2 µM | ~100% | – | – |
| O=C([O-])C(=O)O.O=C([O-])C(=O)O.[K+].[K+].[O]=[Ti] [Compound 14, Potassium dioxalatoxotitanate(IV) dihydrate] | – | – | – | – | insignificant antiproliferative effect | >>35.4 µg/mL | > 100 µM | >32 µg/mL | 40.5% | – | – | – | – |
| [Cu(Deferasirox)(H2O)]2 [Compound 15] | – | – | – | – | – | – | 8.4 ± 1.62 µM | >32 µg/mL | 26.9% | – | – | ~50% | 7.70 ± 1.47 µg/mL |
